Molecular target: human TYK2 (JH2domain-pseudokinase) (Homo sapiens (Human), UniProt P29597)
Assay: TYK2 JH2 Domain Binding Assay (KINOMEscan, DiscoveRx)
Settings: 11-point dilution, duplicate
Method in brief: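 TYK2 JH2 (G556–D888)–NFkB DBD fusion, DNA-tagged, from HEK293 extracts (<0.1 nM) competed against immobilised biotinylated ligand for 1 h at room temperature, 0.9% DMSO. Bead-retained kinase quantified by qPCR; Kd from 11-point 3-fold series (top 30,000 nM, duplicate), Hill fit with slope −1.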

Chain of human TYK2 (JH2domain-pseudokinase) (P29597 556-888): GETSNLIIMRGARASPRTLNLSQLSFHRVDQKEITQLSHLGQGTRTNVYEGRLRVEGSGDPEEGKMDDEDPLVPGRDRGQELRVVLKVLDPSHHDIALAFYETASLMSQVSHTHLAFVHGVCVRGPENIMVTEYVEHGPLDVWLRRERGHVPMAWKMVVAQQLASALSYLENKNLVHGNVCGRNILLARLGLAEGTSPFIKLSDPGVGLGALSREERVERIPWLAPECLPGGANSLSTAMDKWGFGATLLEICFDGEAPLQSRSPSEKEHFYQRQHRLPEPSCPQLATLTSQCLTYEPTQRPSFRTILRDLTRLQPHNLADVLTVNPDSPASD

For CC1(C)CN=C(c2ccc(Nc3cc(NC(=O)C4CC4)nc4[nH]c(C(F)F)nc34)c(S(C)(=O)=O)c2)O1 [I-283, N-(2-(difluoromethyl)-7-((4-(5,5-dimethyl-4,5-dihydrooxazol-2-yl)-2-(methylsulfonyl)phenyl)amino)-3H-imidazo[4,5-b]pyridin-5-yl)cyclopropanecarboxamide], which Kd is on record?
The Kd was 1 to 10 nM.

For Cc1nc2c(Nc3ccc(C4=NCC(C)(C)O4)cc3S(C)(=O)=O)cc(NC(=O)C3CC3)nc2[nH]1 [I-284, N-(7-((4-(5,5-dimethyl-4,5-dihydrooxazol-2-yl)-2-(methylsulfonyl)phenyl)amino)-2-methyl-3H-imidazo[4,5-b]pyridin-5-yl)cyclopropanecarboxamide], which Kd is on record?
The Kd was 0.5 to 1 nM.

CP(C)(=O)c1cc(C2CC2)ccc1Nc1cc(NC(=O)C2CC2)nc2[nH]c(C(F)F)nc12 [I-285, N-(7-((4-cyclopropyl-2-(dimethylphosphoryl)phenyl)amino)-2-(difluoromethyl)-3H-imidazo[4,5-b]pyridin-5-yl)cyclopropanecarboxamide] was tested. Which Kd did it give?
The Kd was 0.1 to 0.5 nM.

How did the Kd turn out when Cc1nc2c(Nc3ccc(C4CC4)cc3P(C)(C)=O)cc(NC(=O)C3CC3)nc2[nH]1 [I-286, N-(7-((4-cyclopropyl-2-(dimethylphosphoryl)phenyl)amino)-2-methyl-3H-imidazo[4,5-b]pyridin-5-yl)cyclopropanecarboxamide] was run?
Its Kd is 0.1 to 0.5 nM.

For CS(=O)(=O)c1cc(-c2ccn(C3CC3)n2)ccc1Nc1cc(NC(=O)C2CC2)nc2[nH]c(C(F)F)nc12 [I-287, N-(7-((4-(1-cyclopropyl-1H-pyrazol-3-yl)-2-(methylsulfonyl)phenyl)amino)-2-(difluoromethyl)-3H-imidazo[4,5-b]pyridin-5-yl)cyclopropanecarboxamide], which Kd is on record?
Its Kd is 0.1 to 0.5 nM.

How did the Kd turn out when Cc1csc(-c2ccc(Nc3cc(NC(=O)C4CC4)nc4[nH]c(C(F)F)nc34)c(S(C)(=O)=O)c2)n1 [I-288, N-(2-(difluoromethyl)-7-((2-(methylsulfonyl)-4-(4-methylthiazol-2-yl)phenyl)amino)-3H-imidazo[4,5-b]pyridin-5-yl)cyclopropanecarboxamide] was run?
Its Kd is 0.1 to 0.5 nM.

For Cc1csc(-c2ccc(Nc3cc(NC(=O)C4CC4)nc4[nH]c(C)nc34)c(S(C)(=O)=O)c2)n1 [I-289, N-(2-methyl-7-((2-(methylsulfonyl)-4-(4-methylthiazol-2-yl)phenyl)amino)-3H-imidazo[4,5-b]pyridin-5-yl)cyclopropanecarboxamide], which Kd is on record?
Its Kd is 0.1 to 0.5 nM.

Cc1cc(-c2ccc(Nc3cc(Nc4cccc(C(F)(F)F)n4)nc4[nH]c(C(F)F)nc34)c(S(C)(=O)=O)c2)nn1C [I-290, 2-(difluoromethyl)-N7-(4-(1,5-dimethyl-1H-pyrazol-3-yl)-2-(methylsulfonyl)phenyl)-N5-(6-(trifluoromethyl)pyridin-2-yl)-3H-imidazo[4,5-b]pyridine-5,7-diamine] was tested. Which Kd did it give?
Its Kd is 0.5 to 1 nM.

Cc1nc2c(Nc3ccc([C@@H]4CCOC4)cc3S(C)(=O)=O)cc(NC(=O)C3CC3)nc2[nH]1 [I-291, (S)—N-(2-methyl-7-((2-(methylsulfonyl)-4-(tetrahydrofuran-3-yl)phenyl)amino)-3H-imidazo[4,5-b]pyridin-5-yl)cyclopropanecarboxamide] was tested. Which Kd did it give?
The Kd was 0.5 to 1 nM.

For Cc1nc2c(Nc3ccc([C@H]4CCOC4)cc3S(C)(=O)=O)cc(NC(=O)C3CC3)nc2[nH]1 [I-292, (R)—N-(2-methyl-7-((2-(methylsulfonyl)-4-(tetrahydrofuran-3-yl)phenyl)amino)-3H-imidazo[4,5-b]pyridin-5-yl)cyclopropanecarboxamide], which Kd is on record?
Its Kd is 1 to 10 nM.

CS(=O)(=O)c1cc(C2CCOCC2)ccc1Nc1cc(NC(=O)[C@@H]2CC2(F)F)nc2[nH]c(C(F)F)nc12 [I-293, (S)—N-(2-(difluoromethyl)-7-((2-(methylsulfonyl)-4-(tetrahydro-2H-pyran-4-yl)phenyl)amino)-3H-imidazo[4,5-b]pyridin-5-yl)-2,2-difluorocyclopropane-1-carboxamide] was tested. Which Kd did it give?
The Kd was 1 to 10 nM.

Which Kd does the source give for CS(=O)(=O)c1cc(C2CCOCC2)ccc1Nc1cc(NC(=O)[C@H]2CC2(F)F)nc2[nH]c(C(F)F)nc12 [I-294, (R)—N-(2-(difluoromethyl)-7-((2-(methylsulfonyl)-4-(tetrahydro-2H-pyran-4-yl)phenyl)amino)-3H-imidazo[4,5-b]pyridin-5-yl)-2,2-difluorocyclopropane-1-carboxamide] here?
The Kd was 1 to 10 nM.

For COCCNc1ccc(Nc2cc(Nc3ccccc3N(C)S(C)(=O)=O)c3nc(C(F)F)[nH]c3n2)nc1C#N [I-295, N-(2-((5-((6-cyano-5-((2-methoxyethyl)amino)pyridin-2-yl)amino)-2-(difluoromethyl)-3H-imidazo[4,5-b]pyridin-7-yl)amino)phenyl)-N-methylmethane sulfonamide], which Kd is on record?
The Kd was 0.1 to 0.5 nM.

Which Kd does the source give for COc1c(Nc2cc(NC(=O)[C@@H]3C[C@@H]3F)nc3[nH]c(C(F)F)nc23)cccc1-c1ncn(C)n1 [I-296, (1S,2S)—N-(2-(difluoromethyl)-7-((2-methoxy-3-(1-methyl-1H-1,2,4-triazol-3-yl)phenyl)amino)-3H-imidazo[4,5-b]pyridin-5-yl)-2-fluorocyclopropane-1-carboxamide] here?
The Kd was 0.5 to 1 nM.

Which Kd does the source give for C[S@+]([O-])c1ccccc1Nc1cc(NC(=O)C2CC2)nc2[nH]c(C(F)F)nc12 [I-297, (S)—N-(2-(difluoromethyl)-7-((2-(methylsulfinyl)phenyl)amino)-3H-imidazo[4,5-b]pyridin-5-yl)cyclopropanecarboxamide] here?
Its Kd is 0.5 to 1 nM.

Which Kd does the source give for C[S@@+]([O-])c1ccccc1Nc1cc(NC(=O)C2CC2)nc2[nH]c(C(F)F)nc12 [I-298, (R)—N-(2-(difluoromethyl)-7-((2-(methylsulfinyl)phenyl)amino)-3H-imidazo[4,5-b]pyridin-5-yl)cyclopropanecarboxamide] here?
The Kd was over 10 nM.

How did the Kd turn out when Cc1nc2c(Nc3ccc(-c4cc(C)n(C)n4)cc3S(C)(=O)=O)cc(Nc3cccc(C(F)(F)F)n3)nc2[nH]1 [I-299, N7-(4-(1,5-dimethyl-1H-pyrazol-3-yl)-2-(methylsulfonyl)phenyl)-2-methyl-N5-(6-(trifluoromethyl)pyridin-2-yl)-3H-imidazo[4,5-b]pyridine-5,7-diamine] was run?
Its Kd is 0.5 to 1 nM.

For Cc1ncc(Nc2cc(Nc3ccc(-c4cc(C)n(C)n4)cc3S(C)(=O)=O)c3nc(C(F)F)[nH]c3n2)nc1C [I-300, 2-(difluoromethyl)-N7-(4-(1,5-dimethyl-1H-pyrazol-3-yl)-2-(methylsulfonyl)phenyl)-N5-(5,6-dimethylpyrazin-2-yl)-3H-imidazo[4,5-b]pyridine-5,7-diamine], which Kd is on record?
Its Kd is 0.1 to 0.5 nM.

With Cn1cnc(-c2ccc(Nc3cc(NC(=O)[C@H]4C[C@H]4F)nc4[nH]c(C(F)F)nc34)c(S(C)(=O)=O)c2)c1 [I-301, (1R,2R)—N-(2-(difluoromethyl)-7-((4-(1-methyl-1H-imidazol-4-yl)-2-(methylsulfonyl)phenyl)amino)-3H-imidazo[4,5-b]pyridin-5-yl)-2-fluorocyclopropane-1-carboxamide] as the compound, how does the Kd read?
Its Kd is 0.1 to 0.5 nM.

For Cc1c(-c2ccc(Nc3cc(Nc4cccc(C#N)n4)nc4[nH]c(C(F)F)nc34)c(S(C)(=O)=O)c2)cnn1C [I-302, 6-((2-(difluoromethyl)-7-((4-(1,5-dimethyl-1H-pyrazol-4-yl)-2-(methylsulfonyl)phenyl)amino)-3H-imidazo[4,5-b]pyridin-5-yl)amino)picolinonitrile], which Kd is on record?
Its Kd is 0.1 to 0.5 nM.

For Cc1ccc(Nc2cc(Nc3ccc(-c4cc(C)n(C)n4)cc3S(C)(=O)=O)c3nc(C(F)F)[nH]c3n2)nc1C#N [I-303, 6-((2-(difluoromethyl)-7-((4-(1,5-dimethyl-1H-pyrazol-3-yl)-2-(methylsulfonyl)phenyl)amino)-3H-imidazo[4,5-b]pyridin-5-yl)amino)-3-methylpicolinonitrile], which Kd is on record?
The Kd was 0.5 to 1 nM.

Cc1cnc(-c2ccc(Nc3cc(NC(=O)C4CC4)nc4[nH]c(C(F)F)nc34)c(S(C)(=O)=O)c2)s1 [I-304, N-(2-(difluoromethyl)-7-((2-(methylsulfonyl)-4-(5-methylthiazol-2-yl)phenyl)amino)-3H-imidazo[4,5-b]pyridin-5-yl)cyclopropanecarboxamide] was tested. Which Kd did it give?
Its Kd is 0.5 to 1 nM.

Which Kd does the source give for Cc1nc2c(Nc3ccc(-c4ncc(C)s4)cc3S(C)(=O)=O)cc(NC(=O)C3CC3)nc2[nH]1 [I-305, N-(2-methyl-7-((2-(methylsulfonyl)-4-(5-methylthiazol-2-yl)phenyl)amino)-3H-imidazo[4,5-b]pyridin-5-yl)cyclopropanecarboxamide] here?
The Kd was 0.1 to 0.5 nM.

How did the Kd turn out when CS(=O)(=O)c1cc([C@H]2CCCO2)ccc1Nc1cc(NC(=O)[C@@H]2CC2(F)F)nc2[nH]c(C(F)F)nc12 [I-306, (S)—N-(2-(difluoromethyl)-7-((2-(methylsulfonyl)-4-((R)-tetrahydrofuran-2-yl)phenyl)amino)-3H-imidazo[4,5-b]pyridin-5-yl)-2,2-difluorocyclopropane-1-carboxamide] was run?
The Kd was 0.5 to 1 nM.

For CS(=O)(=O)c1cc([C@H]2CCCO2)ccc1Nc1cc(NC(=O)[C@H]2CC2(F)F)nc2[nH]c(C(F)F)nc12 [I-307, (R)—N-(2-(difluoromethyl)-7-((2-(methylsulfonyl)-4-((R)-tetrahydrofuran-2-yl)phenyl)amino)-3H-imidazo[4,5-b]pyridin-5-yl)-2,2-difluorocyclopropane-1-carboxamide], which Kd is on record?
Its Kd is 1 to 10 nM.

With Cc1c(-c2ccc(Nc3cc(NC(=O)[C@@H]4CC4(F)F)nc4[nH]c(C(F)F)nc34)c(S(C)(=O)=O)c2)cnn1C [I-308, (S)—N-(2-(difluoromethyl)-7-((4-(1,5-dimethyl-1H-pyrazol-4-yl)-2-(methylsulfonyl)phenyl)amino)-3H-imidazo[4,5-b]pyridin-5-yl)-2,2-difluorocyclopropane-1-carboxamide] as the compound, how does the Kd read?
Its Kd is 0.1 to 0.5 nM.

Cc1c(-c2ccc(Nc3cc(NC(=O)[C@H]4CC4(F)F)nc4[nH]c(C(F)F)nc34)c(S(C)(=O)=O)c2)cnn1C [I-309, (R)—N-(2-(difluoromethyl)-7-((4-(1,5-dimethyl-1H-pyrazol-4-yl)-2-(methylsulfonyl)phenyl)amino)-3H-imidazo[4,5-b]pyridin-5-yl)-2,2-difluorocyclopropane-1-carboxamide] was tested. Which Kd did it give?
The Kd was 0.1 to 0.5 nM.

Source: patent publication US10647713B2 (Nimbus Lakshmi, Inc., priority 2016, dated 2020)
